Read-outs that look alike come from different tables or passages of the source. Starred links: 1 amine or outer side, 2 acyl side, 3 side chain; linkers in the order of their positions; H or OH if unused. Non-standard residues stand in square brackets, D forms with d. Residues, ends and D or L forms follow the SMILES beside them. Groups on a side chain read outwards from the residue. *: point of attachment. C18 diacid = O=C(O)CCCCCCCCCCCCCCCCC(=O)*; γGlu = O=C(O)[C@H](CCC(=O)[*:2])N[*:1]; AEEA = NCCOCCOCC(=O)O; Aib = CC(C)(N)C(=O)O

The assay concerns the target T1, human CRF2α receptor (Homo sapiens, UniProt Q13324).
T1 construct: expressed in transfected cells; host or cells: TeloHEAC
T1 sequence (Q13324 1-411): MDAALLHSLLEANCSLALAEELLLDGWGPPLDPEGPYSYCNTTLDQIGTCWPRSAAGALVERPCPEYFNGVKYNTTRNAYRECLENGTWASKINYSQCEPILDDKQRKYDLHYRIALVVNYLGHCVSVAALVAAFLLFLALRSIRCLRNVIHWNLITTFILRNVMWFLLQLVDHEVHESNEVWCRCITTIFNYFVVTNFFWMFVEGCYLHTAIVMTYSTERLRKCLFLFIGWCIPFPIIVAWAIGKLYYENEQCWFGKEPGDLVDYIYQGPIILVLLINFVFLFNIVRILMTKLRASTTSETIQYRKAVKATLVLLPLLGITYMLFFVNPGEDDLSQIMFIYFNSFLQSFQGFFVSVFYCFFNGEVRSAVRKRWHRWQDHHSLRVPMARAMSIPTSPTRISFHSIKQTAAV
Put plainly: cAMP agonism at human CRF2 α receptor in TeloHEAC cells (Example 7). As to conditions: cAMP HTRF, TeloHEAC cells stably expressing human CRF2 α. The assay is classed as cell-based. Summed up:
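Thawed frozen stably transfected cells in HBSS/20 mM HEPES (0% or 0.1% HSA) plus 2 mM IBMX were exposed to compound at 2000 cells/well for 30 min at room temperature. Intracellular cAMP was read by HTRF (665/620 nm ratio) after 1 h lysis; EC50 was derived with 1000 nM urocortin 2 set as 100%.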
In general terms: Time-resolved FRET reads energy transfer from a long-lived donor to a nearby acceptor.

Setting [1] is: 0% HSA, read-out: EC50 [nM], 0% HSA.

As for `CC[C@H](C)[C@H](N)C(=O)N[C@H](C(=O)N[C@@H](CC(C)C)C(=O)N[C@@H](CO)C(=O)N[C@@H](CC(C)C)C(=O)N[C@@H](CC(=O)O)C(=O)N[C@H](C(=O)N1CCC[C@H]1C(=O)N[C@H](C(=O)N[C@@H](CCCCN)C(=O)N[C@@H](CC(C)C)C(=O)N[C@@H](CCCCNC(=O)COCCOCCNC(=O)COCCOCCNC(=O)CC[C@H](NC(=O)CCCCCCCCCCCCCCCCC(=O)O)C(=O)O)C(=O)N[C@@H](CCC(N)=O)C(=O)N[C@@H](CCCCN)C(=O)N[C@@H](CC(C)C)C(=O)N[C@@H](CC(C)C)C(=O)N[C@@H](CCC(=O)O)C(=O)N[C@@H](CCC(N)=O)C(=O)N[C@@H](CCC(=O)O)C(=O)N[C@@H](CCCNC(=N)N)C(=O)N[C@@H](CCC(N)=O)C(=O)N[C@@H](CCCCN)C(=O)N[C@@H](CCCCN)C(=O)N[C@@H](CCC(N)=O)C(=O)N[C@@H](CCCNC(=N)N)C(=O)N[C@@H](CCC(=O)O)C(=O)N[C@@H](CCC(N)=O)C(=O)N[C@@H](C)C(=O)N[C@@H](CCC(=O)O)C(=O)N[C@H](C(=O)N[C@@H](CC(N)=O)C(=O)NC(C)(C)C(=O)N[C@@H](CCC(N)=O)C(=O)N[C@H](C(=O)N[C@@H](CC(C)C)C(=O)N[C@@H](C)C(=O)N[C@@H](CCC(N)=O)C(=O)N[C@H](C(N)=O)C(C)C)[C@@H](C)CC)[C@@H](C)O)[C@@H](C)CC)C(C)C)C(C)C` [compound 92] (H-IVLSLDVPIKLK([AEEA-AEEA-γGlu-C18 diacid])QKLLEQERQKKQREQAETN[Aib]QILAQV-NH2; N-terminus assumed), the half-maximal effective concentration (EC50) under setting [1] worked out at 9.17 nM.
On the same count and under the same terms, the result for `CC[C@H](C)[C@H](N)C(=O)N[C@H](C(=O)N[C@@H](CC(C)C)C(=O)N[C@@H](CO)C(=O)N[C@@H](CC(C)C)C(=O)N[C@@H](CC(=O)O)C(=O)N[C@H](C(=O)N1CCC[C@H]1C(=O)N[C@H](C(=O)N[C@@H](CCCCN)C(=O)N[C@@H](CC(C)C)C(=O)N[C@@H](CCCCNC(=O)COCCOCCNC(=O)COCCOCCNC(=O)CC[C@H](NC(=O)CCCCCCCCCCCCCCCCC(=O)O)C(=O)O)C(=O)N[C@@H](CCC(N)=O)C(=O)N[C@@H](CCCCN)C(=O)N[C@@H](CC(C)C)C(=O)N[C@@H](CC(C)C)C(=O)N[C@@H](CCCCN)C(=O)N[C@@H](CCC(N)=O)C(=O)N[C@@H](CCC(=O)O)C(=O)N[C@@H](CCCNC(=N)N)C(=O)N[C@@H](CCC(N)=O)C(=O)N[C@@H](CCCCN)C(=O)N[C@@H](CCCCN)C(=O)N[C@@H](CCC(N)=O)C(=O)N[C@@H](CCCNC(=N)N)C(=O)N[C@@H](CCC(=O)O)C(=O)N[C@@H](CCCCN)C(=O)N[C@@H](C)C(=O)N[C@@H](CCCCN)C(=O)N[C@H](C(=O)N[C@@H](CC(N)=O)C(=O)N[C@H](C(=O)N[C@@H](CCC(N)=O)C(=O)N[C@H](C(=O)N[C@@H](CC(C)C)C(=O)N[C@@H](C)C(=O)N[C@@H](CCC(N)=O)C(=O)N[C@H](C(N)=O)C(C)C)[C@@H](C)CC)C(C)C)[C@@H](C)O)[C@@H](C)CC)C(C)C)C(C)C` [compound 93] (H-IVLSLDVPIKLK([AEEA-AEEA-γGlu-C18 diacid])QKLLKQERQKKQREKAKTNVQILAQV-NH2; N-terminus assumed) reads 50.9 nM.
Take `CC[C@H](C)[C@H](N)C(=O)N[C@H](C(=O)N[C@@H](CC(C)C)C(=O)N[C@@H](CO)C(=O)N[C@@H](CC(C)C)C(=O)N[C@@H](CC(=O)O)C(=O)N[C@H](C(=O)N1CCC[C@H]1C(=O)N[C@H](C(=O)N[C@@H](CCCCN)C(=O)N[C@@H](CC(C)C)C(=O)N[C@@H](CCCCNC(=O)COCCOCCNC(=O)COCCOCCNC(=O)CC[C@H](NC(=O)CCCCCCCCCCCCCCCCC(=O)O)C(=O)O)C(=O)N[C@@H](CCCCN)C(=O)N[C@H](C(=O)N[C@@H](CC(C)C)C(=O)N[C@@H](CC(C)C)C(=O)N[C@@H](CCCCN)C(=O)N[C@@H](CCC(N)=O)C(=O)N[C@@H](CCC(=O)O)C(=O)N[C@@H](CCCNC(=N)N)C(=O)N[C@@H](CCC(N)=O)C(=O)N[C@@H](CCCCN)C(=O)N[C@@H](CCCCN)C(=O)N[C@@H](CCC(=O)O)C(=O)N[C@@H](CCCNC(=N)N)C(=O)N[C@@H](CCC(=O)O)C(=O)N[C@@H](CCC(N)=O)C(=O)N[C@@H](C)C(=O)N[C@@H](CCC(=O)O)C(=O)N[C@H](C(=O)N[C@@H](CC(N)=O)C(=O)N[C@@H](CCCCN)C(=O)N[C@@H](CCC(N)=O)C(=O)N[C@H](C(=O)N[C@@H](CC(C)C)C(=O)N[C@@H](C)C(=O)N[C@@H](CCC(N)=O)C(=O)N[C@H](C(N)=O)C(C)C)[C@@H](C)CC)[C@@H](C)O)[C@@H](C)CC)[C@@H](C)CC)C(C)C)C(C)C` [compound 94] (H-IVLSLDVPIKLK([AEEA-AEEA-γGlu-C18 diacid])KILLKQERQKKEREQAETNKQILAQV-NH2): the EC50 is, setting by setting: under setting [1], 1.73 nM; (0.1% HSA, read-out: EC50 [nM], 0.1% HSA) 49.1 nM.
In the case of `CC[C@H](C)[C@H](N)C(=O)N[C@H](C(=O)N[C@@H](CC(C)C)C(=O)N[C@@H](CO)C(=O)N[C@@H](CC(C)C)C(=O)N[C@@H](CC(=O)O)C(=O)N[C@H](C(=O)N1CCC[C@H]1C(=O)N[C@H](C(=O)N[C@@H](CCCCN)C(=O)N[C@@H](CC(C)C)C(=O)N[C@@H](CCCCNC(=O)COCCOCCNC(=O)COCCOCCNC(=O)CC[C@H](NC(=O)CCCCCCCCCCCCCCCCC(=O)O)C(=O)O)C(=O)N[C@@H](CCC(N)=O)C(=O)N[C@@H](CCCCN)C(=O)N[C@@H](CC(C)C)C(=O)N[C@@H](CC(C)C)C(=O)N[C@@H](CCCCN)C(=O)N[C@@H](CCC(N)=O)C(=O)N[C@@H](CCC(=O)O)C(=O)N[C@@H](CCCNC(=N)N)C(=O)N[C@@H](CCC(N)=O)C(=O)N[C@@H](CCCCN)C(=O)N[C@@H](CCCCN)C(=O)N[C@@H](CCC(=O)O)C(=O)N[C@@H](CCCNC(=N)N)C(=O)N[C@@H](CCC(=O)O)C(=O)N[C@@H](CCC(N)=O)C(=O)N[C@@H](C)C(=O)N[C@@H](CCC(=O)O)C(=O)N[C@H](C(=O)N[C@@H](CC(N)=O)C(=O)N[C@@H](CCCCN)C(=O)N[C@@H](CCC(N)=O)C(=O)N[C@H](C(=O)N[C@@H](CC(C)C)C(=O)N[C@@H](C)C(=O)N[C@@H](CCC(N)=O)C(=O)N[C@H](C(N)=O)C(C)C)[C@@H](C)CC)[C@@H](C)O)[C@@H](C)CC)C(C)C)C(C)C` [compound 95] (H-IVLSLDVPIKLK([AEEA-AEEA-γGlu-C18 diacid])QKLLKQERQKKEREQAETNKQILAQV-NH2; N-terminus assumed), the EC50 under setting [1] stood at 25 nM.
Same read-out and setting: for `CC[C@H](C)[C@H](N)C(=O)N[C@H](C(=O)N[C@@H](CC(C)C)C(=O)N[C@@H](CO)C(=O)N[C@@H](CC(C)C)C(=O)N[C@@H](CC(=O)O)C(=O)N[C@H](C(=O)N1CCC[C@H]1C(=O)N[C@H](C(=O)N[C@@H](CCCCN)C(=O)N[C@@H](CC(C)C)C(=O)N[C@@H](CCCCNC(=O)COCCOCCNC(=O)COCCOCCNC(=O)CC[C@H](NC(=O)CCCCCCCCCCCCCCCCC(=O)O)C(=O)O)C(=O)N[C@@H](CCC(N)=O)C(=O)N[C@@H](CCCCN)C(=O)N[C@@H](CC(C)C)C(=O)N[C@@H](CC(C)C)C(=O)N[C@@H](CCCCN)C(=O)N[C@@H](CCC(N)=O)C(=O)N[C@@H](CCC(=O)O)C(=O)N[C@@H](CCCNC(=N)N)C(=O)N[C@@H](CCC(N)=O)C(=O)N[C@@H](CCCCN)C(=O)N[C@@H](CCCCN)C(=O)N[C@@H](CCC(N)=O)C(=O)N[C@@H](CCCNC(=N)N)C(=O)N[C@@H](CCC(=O)O)C(=O)N[C@@H](CCC(N)=O)C(=O)N[C@@H](C)C(=O)N[C@@H](CCC(=O)O)C(=O)N[C@H](C(=O)N[C@@H](CC(N)=O)C(=O)N[C@@H](CCCCN)C(=O)N[C@@H](CCC(N)=O)C(=O)N[C@H](C(=O)N[C@@H](CC(C)C)C(=O)N[C@@H](C)C(=O)N[C@@H](CCC(N)=O)C(=O)N[C@H](C(N)=O)C(C)C)[C@@H](C)CC)[C@@H](C)O)[C@@H](C)CC)C(C)C)C(C)C` [compound 97] (H-IVLSLDVPIKLK([AEEA-AEEA-γGlu-C18 diacid])QKLLKQERQKKQREQAETNKQILAQV-NH2) the value was 1.66 nM; for `CC[C@H](C)[C@H](N)C(=O)N[C@H](C(=O)N[C@@H](CC(C)C)C(=O)N[C@@H](CO)C(=O)N[C@@H](CC(C)C)C(=O)N[C@@H](CC(=O)O)C(=O)N[C@H](C(=O)N1CCC[C@H]1C(=O)N[C@H](C(=O)N[C@@H](CCCCN)C(=O)N[C@@H](CC(C)C)C(=O)N[C@@H](CCCCNC(=O)COCCOCCNC(=O)COCCOCCNC(=O)CC[C@H](NC(=O)CCCCCCCCCCCCCCCCC(=O)O)C(=O)O)C(=O)N[C@@H](CCC(N)=O)C(=O)N[C@@H](CCCCN)C(=O)N[C@@H](CC(C)C)C(=O)N[C@@H](CC(C)C)C(=O)N[C@@H](CCCCN)C(=O)N[C@@H](CCC(N)=O)C(=O)N[C@@H](CCC(=O)O)C(=O)N[C@@H](CCCNC(=N)N)C(=O)N[C@@H](CCC(N)=O)C(=O)N[C@@H](CCCCN)C(=O)N[C@@H](CCCCN)C(=O)NC(C)(C)C(=O)N[C@@H](CCCNC(=N)N)C(=O)N[C@@H](CCC(=O)O)C(=O)N[C@@H](CCC(N)=O)C(=O)N[C@@H](C)C(=O)N[C@@H](CCC(=O)O)C(=O)N[C@H](C(=O)N[C@@H](CC(N)=O)C(=O)N[C@@H](CCCCN)C(=O)N[C@@H](CCC(N)=O)C(=O)N[C@H](C(=O)N[C@@H](CC(C)C)C(=O)N[C@@H](C)C(=O)N[C@@H](CCC(N)=O)C(=O)N[C@H](C(N)=O)C(C)C)[C@@H](C)CC)[C@@H](C)O)[C@@H](C)CC)C(C)C)C(C)C` [compound 98] (H-IVLSLDVPIKLK([AEEA-AEEA-γGlu-C18 diacid])QKLLKQERQKK[Aib]REQAETNKQILAQV-NH2; N-terminus assumed), 2.36 nM.

In general, EC50 refers to the concentration needed to bring the measured effect to its halfway point.

These data come from patent US12679878B2, “CRF2 receptor agonists and their use in therapy” (SANOFI, priority 2020, dated 2026).
